Assay results from patent US20230391768A2, “IMIDAZOPYRIDINE DERIVATIVES AND AZA-IMIDAZOPYRIDINE DERIVATIVES AS JANUS KINASE 2 INHIBITORS AND USES THEREOF” (Dana-Farber Cancer Institute, Inc., priority 2018, published 2023).

How the values were obtained:
Assay in all cases: KINOMEscan
Type in all cases: binding
Settings in all cases: read-out: percent of control
DCAMKL1 = DCAMKL1 (Homo sapiens (Human), UniProt O15075)
Experimental: (§1) In vitro profiling of Compound I-2 (1 μM) was performed using the DiscoveRx KINOMEscan® platform.

PIK3CD = PIK3CD (Homo sapiens (Human), UniProt O00329)
Experimental: as §1

RET (V804M) = RET (V804M) (Homo sapiens (Human), UniProt P07949, V804M)
Experimental: as §1

PRKCI = PRKCI (Homo sapiens (Human), UniProt P41743)
Experimental: as §1

PDPK1 = PDPK1 (Homo sapiens (Human), UniProt O15530)
Experimental: as §1

GRK2 = GRK2 (Homo sapiens (Human), UniProt P25098)
Experimental: as §1

SRPK3 = SRPK3 (Homo sapiens (Human), UniProt Q9UPE1)
Experimental: as §1

TLK2 = TLK2 (Homo sapiens (Human), UniProt Q86UE8)
Experimental: as §1

SIK2 = SIK2 (Homo sapiens (Human), UniProt Q9H0K1)
Experimental: as §1

RIOK1 = RIOK1 (Homo sapiens (Human), UniProt Q9BRS2)
Experimental: as §1

MAP4K2 = MAP4K2 (Homo sapiens (Human), UniProt Q12851)
Experimental: as §1

CAMK2B = CAMK2B (Homo sapiens (Human), UniProt Q13554)
Experimental: as §1

PYK2 = PYK2 (Homo sapiens (Human), UniProt Q14289)
Experimental: as §1

YANK1 = YANK1 (Homo sapiens (Human), UniProt Q8WU08)
Experimental: as §1

EPHB2 = EPHB2 (Homo sapiens (Human), UniProt P29323)
Experimental: as §1

NLK = NLK (Homo sapiens (Human), UniProt Q9UBE8)
Experimental: as §1

ALK(C1156Y) = ALK(C1156Y) (Homo sapiens (Human), UniProt Q9UM73, C1156Y)
Experimental: as §1

NDR1 = NDR1 (Homo sapiens (Human), UniProt Q15208)
Experimental: as §1

PCTK3 = PCTK3 (Homo sapiens (Human), UniProt Q07002)
Experimental: as §1

CDK4-cyclinD3 = CDK4-cyclinD3 (Homo sapiens (Human), UniProt P11802)
Experimental: as §1

PIP5K2B = PIP5K2B (Homo sapiens (Human), UniProt P78356)
Experimental: as §1

MEK4 = MEK4 (Homo sapiens (Human), UniProt P45985)
Experimental: as §1

WEE2 = WEE2 (Homo sapiens (Human), UniProt P0C1S8)
Experimental: as §1

YES = YES (Homo sapiens (Human), UniProt P07947)
Experimental: as §1

PIK3CA(H1047L) = PIK3CA(H1047L) (Homo sapiens (Human), UniProt P42336, H1047L)
Experimental: as §1

DYRK2 = DYRK2 (Homo sapiens (Human), UniProt Q92630)
Experimental: as §1

PAK6 = PAK6 (Homo sapiens (Human), UniProt Q9NQU5)
Experimental: as §1

KIT(V559D,V654A) = KIT(V559D,V654A) (Homo sapiens (Human), UniProt P10721, V559D/V654A)
Experimental: as §1

MKNK1 = MKNK1 (Homo sapiens (Human), UniProt Q9BUB5)
Experimental: as §1

PIK3CA(H1047Y) = PIK3CA(H1047Y) (Homo sapiens (Human), UniProt P42336, H1047Y)
Experimental: as §1

LZK = LZK (Homo sapiens (Human), UniProt O43283)
Experimental: as §1

ERK4 = ERK4 (Homo sapiens (Human), UniProt P31152)
Experimental: as §1

LTK = LTK (Homo sapiens (Human), UniProt P29376)
Experimental: as §1

SNRK = SNRK (Homo sapiens (Human), UniProt Q9NRH2)
Experimental: as §1

INSR = INSR (Homo sapiens (Human), UniProt P06213)
Experimental: as §1

[1] = target: ABL1(F317L)-nonphosphorylated (Homo sapiens (Human), UniProt P00519, F317L)
Experimental: as §1

QSK = QSK (Homo sapiens (Human), UniProt Q9Y2K2)
Experimental: as §1

CSF1R = CSF1R (Homo sapiens (Human), UniProt P07333)
Experimental: as §1

AXL = AXL (Homo sapiens (Human), UniProt P30530)
Experimental: as §1

Chain of INSR (P06213 28-1382): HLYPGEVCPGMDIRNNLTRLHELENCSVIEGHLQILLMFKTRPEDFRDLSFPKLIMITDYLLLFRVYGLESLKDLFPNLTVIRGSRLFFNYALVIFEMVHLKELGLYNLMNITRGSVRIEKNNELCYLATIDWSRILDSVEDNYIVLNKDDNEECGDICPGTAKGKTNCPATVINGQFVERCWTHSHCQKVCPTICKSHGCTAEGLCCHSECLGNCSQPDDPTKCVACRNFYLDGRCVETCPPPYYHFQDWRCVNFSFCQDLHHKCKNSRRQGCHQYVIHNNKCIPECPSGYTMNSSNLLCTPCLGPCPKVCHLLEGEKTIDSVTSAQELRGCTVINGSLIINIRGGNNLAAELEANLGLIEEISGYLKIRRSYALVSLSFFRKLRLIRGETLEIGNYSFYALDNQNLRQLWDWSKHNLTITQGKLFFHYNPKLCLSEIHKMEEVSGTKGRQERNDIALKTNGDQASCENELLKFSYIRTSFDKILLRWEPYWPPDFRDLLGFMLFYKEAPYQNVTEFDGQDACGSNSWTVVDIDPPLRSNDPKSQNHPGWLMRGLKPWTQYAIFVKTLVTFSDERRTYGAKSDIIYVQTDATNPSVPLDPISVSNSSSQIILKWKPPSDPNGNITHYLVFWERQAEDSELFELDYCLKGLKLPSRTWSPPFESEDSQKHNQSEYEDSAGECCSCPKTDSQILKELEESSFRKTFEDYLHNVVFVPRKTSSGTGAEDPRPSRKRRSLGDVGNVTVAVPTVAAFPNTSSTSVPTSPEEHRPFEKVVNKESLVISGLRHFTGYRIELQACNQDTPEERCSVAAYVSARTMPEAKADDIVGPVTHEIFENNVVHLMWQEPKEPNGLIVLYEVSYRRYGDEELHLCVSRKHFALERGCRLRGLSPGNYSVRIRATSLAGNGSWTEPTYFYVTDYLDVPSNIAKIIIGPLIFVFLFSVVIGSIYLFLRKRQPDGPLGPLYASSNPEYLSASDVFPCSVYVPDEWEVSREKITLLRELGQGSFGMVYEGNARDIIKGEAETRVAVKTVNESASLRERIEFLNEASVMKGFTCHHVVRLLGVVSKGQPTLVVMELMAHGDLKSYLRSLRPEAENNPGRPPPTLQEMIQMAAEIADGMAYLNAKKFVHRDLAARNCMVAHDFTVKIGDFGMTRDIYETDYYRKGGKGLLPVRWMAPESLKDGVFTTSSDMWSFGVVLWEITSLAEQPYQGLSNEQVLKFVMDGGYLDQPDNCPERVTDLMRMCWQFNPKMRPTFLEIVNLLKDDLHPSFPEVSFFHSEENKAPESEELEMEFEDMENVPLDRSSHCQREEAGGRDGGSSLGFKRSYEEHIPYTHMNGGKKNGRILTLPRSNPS
Chain of PDPK1 (O15530 whole entry): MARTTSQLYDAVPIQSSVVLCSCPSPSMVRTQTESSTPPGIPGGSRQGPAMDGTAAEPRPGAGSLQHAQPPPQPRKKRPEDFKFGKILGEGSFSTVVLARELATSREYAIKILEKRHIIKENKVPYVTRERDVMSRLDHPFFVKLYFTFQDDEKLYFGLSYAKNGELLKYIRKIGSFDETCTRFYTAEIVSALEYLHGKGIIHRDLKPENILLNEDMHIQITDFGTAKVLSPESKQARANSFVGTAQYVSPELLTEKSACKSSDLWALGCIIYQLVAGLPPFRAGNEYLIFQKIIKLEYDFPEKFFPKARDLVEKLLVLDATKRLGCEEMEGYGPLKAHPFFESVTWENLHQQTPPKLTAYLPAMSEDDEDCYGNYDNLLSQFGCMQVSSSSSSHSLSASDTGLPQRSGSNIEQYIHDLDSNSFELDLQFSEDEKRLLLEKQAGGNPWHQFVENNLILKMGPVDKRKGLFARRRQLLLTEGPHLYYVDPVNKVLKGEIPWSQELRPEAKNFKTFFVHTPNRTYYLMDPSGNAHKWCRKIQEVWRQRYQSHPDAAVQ
Chain of CAMK2B (Q13554 whole entry): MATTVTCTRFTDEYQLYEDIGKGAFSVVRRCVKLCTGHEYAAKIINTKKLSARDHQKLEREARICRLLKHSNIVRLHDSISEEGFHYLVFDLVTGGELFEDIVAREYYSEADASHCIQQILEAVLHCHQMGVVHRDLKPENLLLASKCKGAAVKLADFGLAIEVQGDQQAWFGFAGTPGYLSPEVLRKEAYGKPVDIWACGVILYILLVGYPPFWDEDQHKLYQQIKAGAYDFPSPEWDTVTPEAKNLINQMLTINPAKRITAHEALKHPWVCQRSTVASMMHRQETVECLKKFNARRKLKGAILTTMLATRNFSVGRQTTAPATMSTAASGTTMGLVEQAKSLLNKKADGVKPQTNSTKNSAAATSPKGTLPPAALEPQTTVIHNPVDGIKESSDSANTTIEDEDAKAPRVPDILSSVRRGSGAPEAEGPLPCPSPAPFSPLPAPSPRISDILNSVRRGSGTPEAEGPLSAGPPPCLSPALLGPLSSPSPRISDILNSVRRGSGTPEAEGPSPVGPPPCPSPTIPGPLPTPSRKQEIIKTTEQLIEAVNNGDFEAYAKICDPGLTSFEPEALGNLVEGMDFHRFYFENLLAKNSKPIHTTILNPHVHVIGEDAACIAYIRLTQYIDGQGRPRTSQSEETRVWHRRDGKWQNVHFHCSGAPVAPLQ
Chain of PCTK3 (Q07002 whole entry): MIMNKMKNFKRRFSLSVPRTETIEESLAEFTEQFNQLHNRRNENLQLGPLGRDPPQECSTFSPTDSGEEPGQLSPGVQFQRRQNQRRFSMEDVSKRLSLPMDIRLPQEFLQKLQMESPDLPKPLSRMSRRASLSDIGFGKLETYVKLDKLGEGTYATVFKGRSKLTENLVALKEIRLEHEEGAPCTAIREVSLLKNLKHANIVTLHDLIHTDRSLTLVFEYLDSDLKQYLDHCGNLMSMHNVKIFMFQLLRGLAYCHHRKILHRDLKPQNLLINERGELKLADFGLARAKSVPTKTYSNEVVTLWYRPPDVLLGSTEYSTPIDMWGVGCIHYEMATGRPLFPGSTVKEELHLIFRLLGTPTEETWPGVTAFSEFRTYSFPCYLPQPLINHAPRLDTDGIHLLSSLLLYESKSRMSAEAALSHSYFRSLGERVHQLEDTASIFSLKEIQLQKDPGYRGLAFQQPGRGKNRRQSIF
Chain of RET (V804M) (P07949 29-1114 V804M): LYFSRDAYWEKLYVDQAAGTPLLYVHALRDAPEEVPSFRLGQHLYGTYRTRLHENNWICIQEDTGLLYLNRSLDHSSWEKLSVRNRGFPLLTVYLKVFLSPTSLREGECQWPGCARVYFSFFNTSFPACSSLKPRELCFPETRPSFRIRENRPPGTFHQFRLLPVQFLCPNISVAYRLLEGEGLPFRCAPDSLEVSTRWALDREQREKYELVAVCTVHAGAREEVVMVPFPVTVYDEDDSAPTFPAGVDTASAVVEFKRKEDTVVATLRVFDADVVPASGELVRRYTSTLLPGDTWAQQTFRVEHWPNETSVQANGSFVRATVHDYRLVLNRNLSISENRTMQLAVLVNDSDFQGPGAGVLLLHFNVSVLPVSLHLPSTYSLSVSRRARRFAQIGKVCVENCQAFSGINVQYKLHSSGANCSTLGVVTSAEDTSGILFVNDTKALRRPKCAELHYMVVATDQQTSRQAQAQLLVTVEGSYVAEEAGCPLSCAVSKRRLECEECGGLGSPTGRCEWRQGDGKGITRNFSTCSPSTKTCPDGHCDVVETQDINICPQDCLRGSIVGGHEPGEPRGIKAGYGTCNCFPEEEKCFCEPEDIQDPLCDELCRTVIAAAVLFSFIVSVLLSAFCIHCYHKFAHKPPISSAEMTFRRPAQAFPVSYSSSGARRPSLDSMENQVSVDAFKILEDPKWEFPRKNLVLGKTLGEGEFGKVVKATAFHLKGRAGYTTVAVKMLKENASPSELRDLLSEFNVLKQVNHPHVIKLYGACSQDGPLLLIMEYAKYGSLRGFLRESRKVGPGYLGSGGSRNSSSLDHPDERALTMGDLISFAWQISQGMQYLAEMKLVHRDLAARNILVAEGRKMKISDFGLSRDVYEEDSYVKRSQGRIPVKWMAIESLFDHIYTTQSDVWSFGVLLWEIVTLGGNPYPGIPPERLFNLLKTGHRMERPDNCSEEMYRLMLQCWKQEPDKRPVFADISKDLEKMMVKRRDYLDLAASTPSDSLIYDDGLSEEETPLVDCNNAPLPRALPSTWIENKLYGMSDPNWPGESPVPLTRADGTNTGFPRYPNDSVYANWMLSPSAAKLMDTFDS
Chain of SRPK3 (Q9UPE1 whole entry): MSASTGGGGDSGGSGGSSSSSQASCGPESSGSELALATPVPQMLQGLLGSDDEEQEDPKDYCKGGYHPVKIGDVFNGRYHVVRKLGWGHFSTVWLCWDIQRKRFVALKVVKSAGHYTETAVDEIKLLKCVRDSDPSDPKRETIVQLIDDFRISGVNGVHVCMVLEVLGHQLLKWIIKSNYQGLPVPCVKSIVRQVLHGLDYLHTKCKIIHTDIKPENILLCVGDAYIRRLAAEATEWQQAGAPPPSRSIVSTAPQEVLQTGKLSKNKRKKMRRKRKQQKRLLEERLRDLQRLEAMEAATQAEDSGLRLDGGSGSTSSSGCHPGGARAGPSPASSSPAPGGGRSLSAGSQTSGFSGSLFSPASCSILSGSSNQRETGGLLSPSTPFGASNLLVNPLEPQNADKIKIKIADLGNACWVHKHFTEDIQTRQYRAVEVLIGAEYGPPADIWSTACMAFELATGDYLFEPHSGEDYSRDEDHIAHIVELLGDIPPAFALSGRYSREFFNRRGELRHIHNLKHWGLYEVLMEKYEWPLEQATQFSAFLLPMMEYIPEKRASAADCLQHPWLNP

CCN1CCN(Cc2cc(NC(=O)c3ccc(C)c(-c4ccc5nc(NC(=O)C6CC6)cn5n4)c3)cc(C(F)(F)F)c2)CC1 [Compound I-2, 3-(2-(cyclopropanecarboxamido)imidazo[1,2-b]pyridazin-6-yl)-N-(3-((4-ethylpiperazin-1-yl)methyl)-5-(trifluoromethyl)phenyl)-4-methylbenzamide]
remaining binding at 1 µM (DCAMKL1): 90% | remaining binding at 1 µM (PIK3CD): 100% | remaining binding at 1 µM (RET (V804M)): 0.05% | remaining binding at 1 µM (PRKCI): 66% | remaining binding at 1 µM (PDPK1): 89% | remaining binding at 1 µM (GRK2): 94% | remaining binding at 1 µM (SRPK3): 92% | remaining binding at 1 µM (TLK2): 100% | remaining binding at 1 µM (SIK2): 100% | remaining binding at 1 µM (RIOK1): 100% | remaining binding at 1 µM (MAP4K2): 0.05% | remaining binding at 1 µM (CAMK2B): 100% | remaining binding at 1 µM (PYK2): 3.2% | remaining binding at 1 µM (YANK1): 93% | remaining binding at 1 µM (EPHB2): 0% | remaining binding at 1 µM (NLK): 95% | remaining binding at 1 µM (ALK(C1156Y)): 30% | remaining binding at 1 µM (NDR1): 100% | remaining binding at 1 µM (PCTK3): 4.8% | remaining binding at 1 µM (CDK4-cyclinD3): 41% | remaining binding at 1 µM (PIP5K2B): 93% | remaining binding at 1 µM (MEK4): 98% | remaining binding at 1 µM (WEE2): 100% | remaining binding at 1 µM (YES): 4.7% | remaining binding at 1 µM (PIK3CA(H1047L)): 89% | remaining binding at 1 µM (DYRK2): 95% | remaining binding at 1 µM (PAK6): 95% | remaining binding at 1 µM (KIT(V559D,V654A)): 6.1% | remaining binding at 1 µM (MKNK1): 76% | remaining binding at 1 µM (PIK3CA(H1047Y)): 82% | remaining binding at 1 µM (LZK): 48% | remaining binding at 1 µM (ERK4): 96% | remaining binding at 1 µM (LTK): 3.3% | remaining binding at 1 µM (SNRK): 84% | remaining binding at 1 µM (INSR): 0.85% | remaining binding at 1 µM [1]: 0% | remaining binding at 1 µM (QSK): 92% | remaining binding at 1 µM (CSF1R): 0.05% | remaining binding at 1 µM (AXL): 2.1%

CCN1CCN(Cc2cc(NC(=O)c3ccc(C)c(-c4ccc5nc(NC(=O)C6CC6)cn5c4)c3)cc(C(F)(F)F)c2)CC1 [Compound I-6, 3-(2-(cyclopropanecarboxamido)imidazo[1,2-a]pyridin-6-yl)-N-(3-((4-ethylpiperazin-1-yl)methyl)-5-(trifluoromethyl)phenyl)-4-methylbenzamide]
remaining binding at 1 µM (DCAMKL1): 84% | remaining binding at 1 µM (PIK3CD): 69% | remaining binding at 1 µM (RET (V804M)): 0% | remaining binding at 1 µM (PRKCI): 100% | remaining binding at 1 µM (PDPK1): 83% | remaining binding at 1 µM (GRK2): 63% | remaining binding at 1 µM (SRPK3): 83% | remaining binding at 1 µM (TLK2): 98% | remaining binding at 1 µM (SIK2): 100% | remaining binding at 1 µM (RIOK1): 95% | remaining binding at 1 µM (MAP4K2): 0.2% | remaining binding at 1 µM (CAMK2B): 100% | remaining binding at 1 µM (PYK2): 4.1% | remaining binding at 1 µM (YANK1): 93% | remaining binding at 1 µM (EPHB2): 0% | remaining binding at 1 µM (NLK): 100% | remaining binding at 1 µM (ALK(C1156Y)): 29% | remaining binding at 1 µM (NDR1): 85% | remaining binding at 1 µM (PCTK3): 27% | remaining binding at 1 µM (CDK4-cyclinD3): 64% | remaining binding at 1 µM (PIP5K2B): 86% | remaining binding at 1 µM (MEK4): 71% | remaining binding at 1 µM (WEE2): 95% | remaining binding at 1 µM (YES): 1.6% | remaining binding at 1 µM (PIK3CA(H1047L)): 68% | remaining binding at 1 µM (DYRK2): 92% | remaining binding at 1 µM (PAK6): 97% | remaining binding at 1 µM (KIT(V559D,V654A)): 7.4% | remaining binding at 1 µM (MKNK1): 91% | remaining binding at 1 µM (PIK3CA(H1047Y)): 92% | remaining binding at 1 µM (LZK): 100% | remaining binding at 1 µM (ERK4): 100% | remaining binding at 1 µM (LTK): 2% | remaining binding at 1 µM (SNRK): 99% | remaining binding at 1 µM (INSR): 3.2% | remaining binding at 1 µM [1]: 0% | remaining binding at 1 µM (QSK): 83% | remaining binding at 1 µM (CSF1R): 0% | remaining binding at 1 µM (AXL): 3.9%
